Measurements reported in a compilation of properties of binary mixtures (doi:10.1021/je060497d).

Assay: xn = mol fraction of the nth substance listed
Settings: 101 kPa

COS(=O)(=O)[O-].Cn1cc[n+](C)c1 + CCC(C)=O
speed of sound [m/s]
Settings	x1 = 0.0006	x1 = 0.0012	x1 = 0.0029	x2 = 0	x2 = 0.0257	x2 = 0.0716	x2 = 0.2017	x2 = 0.2926
293.15 K	1214	–	1217	1826	1819	1803	1750	1703
298.15 K	1194	1195	–	–	–	1791	1737	1689
303.15 K	–	1165	1168	1801	–	–	1724	1676

CCCC[n+]1ccn(C)c1.F[P-](F)(F)(F)(F)F + CCOC(C)=O
speed of sound [m/s]
Settings	293.15 K	298.15 K	303.15 K
x2 = 0	1455	1443	1431
x2 = 0.0501	1447	1436	1420
x2 = 0.1003	1438	1427	–
x2 = 0.1854	1421	1412	1401
x2 = 0.3	–	1391	1378
x2 = 0.4064	1379	1366	1354
x2 = 0.5117	1350	–	–
x2 = 0.6032	1319	1310	1291
x2 = 0.7061	1280	–	–
x2 = 0.802	1240	1228	1207
x2 = 0.9021	–	1180	1160
x2 = 0.948	–	1162	1137

CC(C)O + COS(=O)(=O)[O-].Cn1cc[n+](C)c1
x1 = 1
Settings	speed of sound [m/s]
293.15 K	1156
303.15 K	1121

CCOC(C)=O + CCCCCCCC[n+]1ccn(C)c1.F[P-](F)(F)(F)(F)F
x1 = 1
Settings	speed of sound [m/s]
298.15 K	1141
303.15 K	1111

COS(=O)(=O)[O-].Cn1cc[n+](C)c1 + CCOC(C)=O
speed of sound [m/s]
Settings	x2 = 0	x2 = 0.0509	x2 = 0.0706	x2 = 0.0928	x2 = 0.1254	x2 = 0.1451
293.15 K	1826	1808	–	1792	1775	1765
298.15 K	1813	1795	1789	1778	1765	1752
303.15 K	1801	1782	1777	1764	1746	–

CCCCCC[n+]1ccn(C)c1.F[P-](F)(F)(F)(F)F + CC(C)O
speed of sound [m/s]
Settings	x1 = 0.0011	x1 = 0.0019	x1 = 0.0024	x2 = 0	x2 = 0.0067	x2 = 0.074	x2 = 0.189	x2 = 0.3042	x2 = 0.3877	x2 = 0.5107
293.15 K	1157	–	–	–	1437	1427	1408	1388	–	–
298.15 K	1140	1141	1141	1424	1423	1413	1396	1375	–	1325
303.15 K	1122	1124	1124	1411	1410	–	1383	1363	1346	1313

CCOC(C)=O + CCCC[n+]1ccn(C)c1.F[P-](F)(F)(F)(F)F
Settings	speed of sound [m/s]
293.15 K, x1 = 1	1162

CCOC(C)=O + COS(=O)(=O)[O-].Cn1cc[n+](C)c1
x1 = 1
Settings	speed of sound [m/s]
293.15 K	1162
303.15 K	1111

CCC(C)=O + CCCC[n+]1ccn(C)c1.F[P-](F)(F)(F)(F)F
Settings	speed of sound [m/s]
303.15 K, x1 = 1	1163

COS(=O)(=O)[O-].Cn1cc[n+](C)c1 + CC(C)O
speed of sound [m/s]
Settings	293.15 K	298.15 K	303.15 K
x2 = 0	1826	1813	–
x2 = 0.0498	1807	1797	1785
x2 = 0.0958	1791	1777	–
x2 = 0.2008	–	1729	1720
x2 = 0.3063	1684	1670	1662
x2 = 0.4013	1611	1605	1602
x2 = 0.4957	1525	1534	1534
x2 = 0.5945	–	1444	1459
x2 = 0.7039	1338	1352	1370
x2 = 0.8013	1269	1271	1292
x2 = 0.9019	–	1198	1207
x2 = 0.951	–	1167	1166

CCCCCCCC[n+]1ccn(C)c1.F[P-](F)(F)(F)(F)F + CCOC(C)=O
speed of sound [m/s]
Settings	293.15 K	298.15 K	303.15 K
x2 = 0	1424	1408	1393
x2 = 0.0048	–	1408	–
x2 = 0.0967	1408	1393	1379
x2 = 0.1981	1391	1377	1364
x2 = 0.2967	1375	1361	1348
x2 = 0.3954	1358	1344	1330
x2 = 0.5056	1337	1323	–
x2 = 0.6061	1315	1299	1284
x2 = 0.7059	1288	1271	1253
x2 = 0.8004	–	1236	1218
x2 = 0.9036	1209	1189	1169
x2 = 0.9453	1189	–	1147

CCCC[n+]1ccn(C)c1.F[P-](F)(F)(F)(F)F + CC(C)O
speed of sound [m/s]
Settings	x1 = 0.0008	x1 = 0.0011	x2 = 0	x2 = 0.0458	x2 = 0.1055	x2 = 0.1825	x2 = 0.2864
293.15 K	1156	–	1455	–	1441	1429	1409
298.15 K	1139	1140	1443	1437	1429	1417	1397
303.15 K	–	1122	1431	1425	1417	1405	1385

CCCC[n+]1ccn(C)c1.F[P-](F)(F)(F)(F)F + CCC(C)=O
speed of sound [m/s]
Settings	293.15 K	298.15 K	303.15 K
x2 = 0	1455	1443	1431
x2 = 0.0509	1449	1438	–
x2 = 0.0987	1444	1433	1419
x2 = 0.1907	1433	1421	–
x2 = 0.2915	1418	1408	1393
x2 = 0.4057	1399	1390	1374
x2 = 0.5074	1380	1369	1349
x2 = 0.5956	–	–	1322
x2 = 0.7008	–	–	1292
x2 = 0.7919	1301	1286	1260
x2 = 0.8942	1265	1248	1220
x2 = 0.9467	–	1224	1195

CCC(C)=O + COS(=O)(=O)[O-].Cn1cc[n+](C)c1
x1 = 1
Settings	speed of sound [m/s]
293.15 K	1212
303.15 K	1163

CC(C)O + CCCC[n+]1ccn(C)c1.F[P-](F)(F)(F)(F)F
x1 = 1
Settings	speed of sound [m/s]
293.15 K	1156
303.15 K	1121
